Target: T1, mutant CFTR (Homo sapiens, UniProt P13569, DEL508-508)
T1 construct: expressed in transfected cells
Assay: Fluorescence (HS-YFP) assay for CFTR activity, corrector assay
Assay type: cell-based
Conditions: CFBE41o- and FRT cells with stable expression of mutant CFTR, 24 h compound treatment
Method: Fluorescence Assay for CFTR Activity
Mutant CFTR activity was determined with the functional assay based on the halide-sensitive yellow fluorescent protein, HS-YFP (Galietta et al., FEBS Lett 499: 220-224, 2001). CFBE41o- and FRT cells with stable expression of mutant CFTR and HS-YFP were plated on clear-bottom 96-well black microplates (Code 3603, Corning Life Sciences) at a density of 50,000 cells/well and kept at 37° C. in 5% CO2 for 24 hours. For the corrector assay, cells were treated for further 24 hours with test compounds, vehicle (DMSO), or the positive control VX-809. After treatment, the culture medium was removed and cells in each well were stimulated for 30 min at 37° C. with 60 μL PBS (containing 137 mM NaCl, 2.7 mM KCl, 8.1 mM Na2HPO4, 1.5 mM KH2PO4, 1 mM CaCl2, and 0.5 mM MgCl2) plus forskolin (20 μM) and genistein (50 μM).
For determination of potentiator activity on G551D-CFTR or G1349D-CFTR, cells were directly stimulated with forskolin plus test compound without previous incubation at low temperature. At the time of assay, microplates carrying CFBE41o- or FRT cells were transferred to microplate readers (BMG Labtech) equipped with high-quality excitation (HQ500/20X: 500±10 nm) and emission (HQ535/30M: 535±15 nm) filters for YFP (Chroma Technology). The assay consisted of a continuous 14 s fluorescence reading with 2 s before and 12 s after injection of an iodide-containing solution (165 μL of a modified PBS containing I^− instead of Cl^−; final I^− concentration in the well: 100 mM). Data were normalized to the initial background-subtracted fluorescence. Enhanced CFTR activity, induced by correctors and/or potentiators, results in accelerated I^− influx that in turn causes faster HS-YFP quenching (Pedemonte et al., Mol Pharmacol 68:1736-1746, 2005; Pedemonte et al., J Clin Invest 115:2564-2571, […]). To determine fluorescence quenching rate associated with I^− influx, the […] 10 s of data for each well were fitted with an exponential function to extrapolate initial slope (dF/dt).
EC50 obtained are illustrated in table 1 wherein +: EC50>2 μM; ++: 1.0 μM<EC50<2 μM; +++: EC50<1 μM.

T1 sequence (P13569 with tags, fused parts or gaps DEL508-508): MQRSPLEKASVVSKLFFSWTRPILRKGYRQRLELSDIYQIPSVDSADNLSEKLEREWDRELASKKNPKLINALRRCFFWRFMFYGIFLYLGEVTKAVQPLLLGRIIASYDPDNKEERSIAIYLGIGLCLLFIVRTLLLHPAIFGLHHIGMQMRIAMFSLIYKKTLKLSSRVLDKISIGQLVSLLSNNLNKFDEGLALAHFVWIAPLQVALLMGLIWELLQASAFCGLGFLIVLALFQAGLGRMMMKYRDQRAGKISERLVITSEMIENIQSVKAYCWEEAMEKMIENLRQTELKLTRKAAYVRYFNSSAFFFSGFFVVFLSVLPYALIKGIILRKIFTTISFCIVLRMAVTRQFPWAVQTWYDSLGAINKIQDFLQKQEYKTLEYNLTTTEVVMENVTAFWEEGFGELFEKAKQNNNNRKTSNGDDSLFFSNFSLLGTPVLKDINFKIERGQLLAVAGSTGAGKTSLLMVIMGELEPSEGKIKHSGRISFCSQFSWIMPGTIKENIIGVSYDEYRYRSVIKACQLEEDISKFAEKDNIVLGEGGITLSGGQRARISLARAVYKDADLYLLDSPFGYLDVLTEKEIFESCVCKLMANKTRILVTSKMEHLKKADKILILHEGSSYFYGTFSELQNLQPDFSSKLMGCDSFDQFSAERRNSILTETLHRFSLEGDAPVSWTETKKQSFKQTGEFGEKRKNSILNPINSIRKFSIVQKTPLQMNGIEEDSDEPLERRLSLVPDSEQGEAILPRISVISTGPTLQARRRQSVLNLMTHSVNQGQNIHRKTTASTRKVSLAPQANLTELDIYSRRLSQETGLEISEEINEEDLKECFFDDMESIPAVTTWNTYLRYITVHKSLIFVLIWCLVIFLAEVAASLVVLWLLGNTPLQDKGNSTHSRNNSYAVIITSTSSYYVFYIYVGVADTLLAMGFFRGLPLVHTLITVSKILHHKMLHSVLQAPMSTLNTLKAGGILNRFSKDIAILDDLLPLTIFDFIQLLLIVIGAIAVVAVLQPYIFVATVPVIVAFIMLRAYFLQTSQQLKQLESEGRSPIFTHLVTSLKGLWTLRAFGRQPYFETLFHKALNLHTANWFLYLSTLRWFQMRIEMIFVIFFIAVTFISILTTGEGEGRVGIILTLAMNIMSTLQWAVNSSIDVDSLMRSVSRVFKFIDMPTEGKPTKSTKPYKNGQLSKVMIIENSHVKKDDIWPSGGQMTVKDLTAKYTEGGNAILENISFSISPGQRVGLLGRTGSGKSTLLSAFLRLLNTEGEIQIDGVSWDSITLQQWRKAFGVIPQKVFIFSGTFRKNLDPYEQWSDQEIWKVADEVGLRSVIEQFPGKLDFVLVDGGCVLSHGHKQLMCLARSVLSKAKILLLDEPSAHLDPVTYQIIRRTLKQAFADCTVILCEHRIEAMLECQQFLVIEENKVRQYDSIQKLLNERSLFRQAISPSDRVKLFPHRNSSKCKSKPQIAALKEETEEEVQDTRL

| Structure (SMILES) | EC50 [µM] |
| --- | --- |
| COc1ccccc1-c1c(Cl)c(C(F)(F)F)nn1-c1cccc(C(=O)N(C)c2ccc3c(c2)OCO3)c1 [compound 183, N-(1,3-Benzodioxol-5-yl)-3-[4-chloro-5-(2-methoxyphenyl)-3-(trifluoromethyl)pyrazol-1-yl]-N-methyl-benzamide] | < 1 |
| CN(C(=O)c1cccc(-n2nc(C(F)(F)F)cc2O[C@H]2CC[C@@H](C(=O)O)CC2)c1)c1ccc2c(c1)OCO2 [compound 216, Cis-4-[2-[3-[1,3-benzodioxol-5-yl(methyl)carbamoyl]phenyl]-5-(trifluoromethyl)pyrazol-3-yl]oxycyclohexane carboxylic acid] | < 1 |
| CC(C)Oc1cc(C(F)(F)F)nn1-c1cccc(C(=O)N(C)c2ccc3c(c2)OCO3)c1 [compound 131, N-(1,3-benzodioxol-5-yl)-3-[5-isopropoxy-3-(trifluoromethyl)pyrazol-1-yl]-N-methyl-benzamide] | < 1 |
| Cc1nn(-c2cccc(C(=O)N(C)c3ccc4c(c3)OCO4)c2)c(C)c1C(N)=O [compound 056, 1-[3-[1,3-Benzodioxol-5-yl(methyl)carbamoyl]phenyl]-3,5-dimethyl-pyrazole-4-carboxamide] | > 2 |
| CCOC(=O)c1c(C)nn(-c2cccc(C(=O)N(C)c3ccc4c(c3)OCO4)c2)c1C [compound 043, Ethyl 1-[3-[1,3-benzodioxol-5-yl(methyl)carbamoyl]phenyl]-3,5-dimethyl-pyrazole-4-carboxylate] | > 2 |
| CCOC(=O)c1ccc(OCc2c(Cl)c(C(F)(F)F)nn2-c2cccc(C(=O)N(C)c3ccc4c(c3)OCO4)c2)cc1 [compound 150, Ethyl 4-[[2-[3-[1,3-benzodioxol-5-yl(methyl)carbamoyl]phenyl]-4-chloro-5-(trifluoromethyl)pyrazol-3-yl]methoxy]benzoate] | < 1 |
| Cc1c(Cl)c(C(F)(F)F)nn1-c1cccc(C(=O)Nc2ccc3c(c2C=O)OCO3)c1 [Int-203, 3-[4-chloro-5-methyl-3-(trifluoromethyl)pyrazol-1-yl]-N-(4-formyl-1,3-benzodioxol-5-yl)benzamide] | > 2 |
| Cc1noc2cc(N(C)C(=O)c3cccc(-n4nc(C(F)(F)F)cc4OCc4ccc(C(=O)O)cc4)c3)ccc12 [compound 263, 4-[[2-[3-[Methyl-(3-methyl-1,2-benzoxazol-6-yl)carbamoyl]phenyl]-5-(trifluoromethyl)pyrazol-3-yl]oxymethyl]benzoic acid] | > 2 |
| Cc1cc2cc(N(C)C(=O)c3cccc(-n4nc(C(F)(F)F)c(Cl)c4COc4ccc(C(=O)O)cc4)c3)ccn2n1 [compound 239, 4-[[4-Chloro-2-[3-[methyl-(2-methylpyrazolo[1,5-a]pyridin-5-yl)carbamoyl]phenyl]-5-(trifluoromethyl)pyrazol-3-yl]methoxy]benzoic acid] | < 1 |
| Cc1nn(-c2cccc(C(=O)N(C)c3ccc4c(c3)OCO4)c2)c(C)c1C(=O)NCCO [compound 059, 1-[3-[1,3-Benzodioxol-5-yl(methyl)carbamoyl]phenyl]-N-(2-hydroxyethyl)-3,5-dimethyl-pyrazole-4-carboxamide] | > 2 |
| Cc1c(Cl)c(C(F)(F)F)nn1-c1cccc(C(=O)N(C)c2ccc3c(c2)OCCO3)c1 [compound 096, 3-[4-Chloro-5-methyl-3-(trifluoromethyl)pyrazol-1-yl]-N-(2,3-dihydro-1,4-benzodioxin-6-yl)-N-methyl-benzamide] | < 1 |
| Cc1nn(-c2cccc(S(=O)(=O)N(C)c3ccc4c(c3)OCCO4)c2)c(C)c1Cl [compound 020, 3-(4-chloro-3,5-dimethyl-pyrazol-1-yl)-N-(2,3-dihydro-1,4-benzodioxin-6-yl)-N-methyl-benzenesulfonamide] | 1 to 2 |
| CN(C(=O)c1cccc(-n2nc(C(F)(F)F)c(Cl)c2CO[C@H]2CC[C@H](C(=O)O)CC2)c1)c1ccc2c(c1)OC(F)(F)O2 [compound 228, Trans-4-[[4-chloro-2-[3-[(2,2-difluoro-1,3-benzodioxol-5-yl)-methyl-carbamoyl]phenyl]-5-(trifluoromethyl)pyrazol-3-yl]methoxy]cyclohexanecarboxylic acid] | < 1 |
| CN(C(=O)c1cccc(-n2nc(C(F)(F)F)cc2OCc2ccc(C(=O)OC(C)(C)C)cc2)c1)c1ccc2c(c1)OC(F)(F)O2 [compound 191, Tert-butyl 4-[[2-[3-[(2,2-difluoro-1,3-benzodioxol-5-yl)-methyl-carbamoyl]phenyl]-5-(trifluoromethyl)pyrazol-3-yl]oxymethyl]benzoate] | < 1 |
| CN(C(=O)c1cccc(-n2nc(C(F)(F)F)c(Cl)c2OCc2ccc(C(=O)O)cc2)c1)c1ccc2c(c1)OC(F)(F)O2 [compound 211, 4-[[4-Chloro-2-[3-[(2,2-difluoro-1,3-benzodioxol-5-yl)-methyl-carbamoyl]phenyl]-5-(trifluoromethyl)pyrazol-3-yl]oxymethyl]benzoic acid] | < 1 |
| CN(C(=O)c1cccc(-n2nc(C(F)(F)F)c(Cl)c2COc2ccc(C(=O)OC(C)(C)C)cc2)c1)c1ccc2c(c1)OC(F)(F)O2 [compound 175, Tert-butyl 4-[[4-chloro-2-[3-[(2,2-difluoro-1,3-benzodioxol-5-yl)-methyl-carbamoyl]phenyl]-5-(trifluoromethyl)pyrazol-3-yl]methoxy]benzoate] | < 1 |
| Cc1nn(-c2cccc(C(=O)N(C)c3ccc4c(c3)OCO4)c2)c(C)c1C#N [compound 081, N-(1,3-Benzodioxol-5-yl)-3-(4-cyano-3,5-dimethyl-pyrazol-1-yl)-N-methyl-benzamide] | > 2 |
| Cc1nn(-c2cccc(C(=O)N(C)c3ccc4c(c3)OCO4)c2)c(COc2ccccc2)c1Cl [compound 118, N-(1,3-Benzodioxol-5-yl)-3-[4-chloro-3-methyl-5-(phenoxymethyl)pyrazol-1-yl]-N-methyl-benzamide] | < 1 |

More lines, now with the values ahead:

| EC50 [µM] | Structure (SMILES) |
| --- | --- |
| > 2 | Cc1nn(-c2cccc(C(=O)N(C)c3ccc4c(c3)OC(F)(F)C(F)(F)O4)c2)c(C)c1Cl [compound 008, 3-(4-Chloro-3,5-dimethyl-pyrazol-1-yl)-N-methyl-N-(2,2,3,3-tetrafluoro-1,4-benzodioxin-6-yl)benzamide] |
| > 2 | Cc1c(Cl)c(C(F)(F)F)nn1-c1cccc(C(=O)Nc2ccc3c(c2CO)OCO3)c1 [compound 206, 3-[4-chloro-5-methyl-3-(trifluoromethyl)pyrazol-1-yl]-N-[4-(hydroxymethyl)-1,3-benzodioxol-5-yl]benzamide] |
| > 2 | COc1nc2cc(NC(=O)c3cccc(-n4nc(C)c(Cl)c4C)c3)ccc2o1 [Int-063, 3-(4-Chloro-3,5-dimethyl-pyrazol-1-yl)-N-(2-methoxy-1,3-benzoxazol-5-yl)benzamide] |
| > 2 | Cc1nn(-c2cccc(C(=O)N(C)c3ccc4c(c3)OCO4)c2)c([C@@H](C)O)c1Cl (racemic) [compound 114, N-(1,3-benzodioxol-5-yl)-3-[4-chloro-5-[(rac)-1-hydroxyethyl]-3-methyl-pyrazol-1-yl]-N-methyl-benzamide] |
| < 1 | Cc1nc2ccc(N(C)C(=O)c3cccc(-n4nc(C(F)(F)F)c(Cl)c4C4CC4)c3)cc2o1 [compound 137, 3-[4-Chloro-5-cyclopropyl-3-(trifluoromethyl)pyrazol-1-yl]-N-methyl-N-(2-methyl-3-benzoxazol-6-yl)benzamide] |
| > 2 | Cc1nn(-c2cccc(C(=O)N(C)c3ccc4c(c3)OCO4)c2)c(C(N)=O)c1Cl [compound 084, 2-[3-[1,3-benzodioxol-5-yl(methyl)carbamoyl]phenyl]-4-chloro-5-methyl-pyrazole-3-carboxamide] |
| > 2 | Cc1nn(-c2cccc(C(=O)N(C)c3ccc4c(c3)NCCO4)c2)c(C)c1Cl [compound 038, 3-(4-Chloro-3,5-dimethyl-pyrazol-1-yl)-N-(3,4-dihydro-2H-1,4-benzoxazin-4-ium-6-yl)-N-methyl-benzamide 2,2,2-trifluoroacetate] |
| > 2 | Cc1nn(-c2cccc(C(=O)N(C)c3ccc4c(c3)OC(C)(C)O4)c2)c(C)c1Cl [compound 034, 3-(4-Chloro-3,5-dimethyl-pyrazol-1-yl)-N-(2,2-dimethyl-1,3-benzodioxol-5-yl)-N-methyl-benzamide] |
| > 2 | Cc1nn(-c2cccc(C(=O)Nc3ccc4oc(C5CC5)nc4c3)c2)c(C)c1Cl [Int-053, 3-(4-Chloro-3,5-dimethyl-pyrazol-1-yl)-N-(2-cyclopropyl-1,3-benzoxazol-5-yl)benzamide] |
| > 2 | Cc1nn(-c2cccc(C(=O)N(C)c3ccc4oc(C(C)C)nc4c3)c2)c(C)c1Cl [compound 062, 3-(4-Chloro-3,5-dimethyl-pyrazol-1-yl)-N-(2-isopropyl-1,3-benzoxazol-5-yl)-N-methyl-benzamide] |

From US12492193B2, “Pyrazole derivatives for the treatment of cystic fibrosis” (Fondazione Istituto Italiano Di Tecnologia, priority 2017, dated 2025)
